In PMC5669010 (AIDS Research and Therapy, 2017):
Where two headings read alike, the source gives them in different places. One block for each compound: values may come before it.

What was measured:
[1] = cited from earlier work
[2] = tested on: wild-type (non-protease inhibitor-resistant) virus; details: cited from earlier work
clinical = details: human, in vivo, Elvitegravir Ctrough,ss, individual patients
Experimental: (§1) Plasma samples were frozen and stored at – 80 °C until analysis.
(§2) Addition of elvitegravir and cobicistat to the method was partly validated, including selectivity, linearity, accuracy and recovery, inter- and intra-run repeatability, and stability.
(§3) Elvitegravir and cobicistat concentrations were compared to historical controls.

[3] = human, in vivo, 24 h
Experimental: as §1, §2, §3

[4] = 60 subjects, darunavir 800 mg/cobicistat 150 mg with two NRTIs
[5] = population PK data for E/C/F/TDF, n = 419

SMILES: CC(C)OC(=O)[C@H](C)N[P@](=O)(CO[C@H](C)Cn1cnc2c(N)ncnc21)Oc1ccccc1 [TAF, tenofovir alafenamide]
- Plasma concentrations of TAF ([1]; PK substudy of E/C/F/TAF plus darunavir switch study): at the lower end of the efficacious range

SMILES: COC(=O)N[C@H](C(=O)N[C@@H](Cc1ccccc1)[C@@H](O)CN(Cc1ccc(-c2ccccn2)cc1)NC(=O)[C@@H](NC(=O)OC)C(C)(C)C)C(C)(C)C [atazanavir]
- Effect of coadministration with elvitegravir/cobicistat on atazanavir trough levels ([1]; human, in vivo): significant lowering of atazanavir trough levels

SMILES: CC(C)c1nc(CN(C)C(=O)N[C@@H](CCN2CCOCC2)C(=O)N[C@H](CC[C@H](Cc2ccccc2)NC(=O)OCc2cncs2)Cc2ccccc2)cs1 [cobicistat]
- Cobicistat 24-h level, mean ([1]; 59 HIV-infected patients, darunavir/cobicistat with emtricitabine and tenofovir DF): 33 ng/mL
- Cobicistat C0h, mean [1, 4]: 76 ng/mL
- Cobicistat Cmax, mean [1, 4]: 991 ng/mL
- Cobicistat tmax, median [1, 4]: 3.5 h
- Cobicistat 24-h concentration, mean ([1]; patients taking E/C/F/TDF with darunavir): 20.2 ng/mL

SMILES: CC(C)CN(C[C@@H](O)[C@H](Cc1ccccc1)NC(=O)O[C@H]1CO[C@H]2OCC[C@H]21)S(=O)(=O)c1ccc(N)cc1 [darunavir]
- Darunavir Cmax, mean [1, 4]: 7663 ng/mL
- Darunavir tmax, median [1, 4]: 3.5 h
- Half maximal effective concentration (EC50) ([2]; wild-type (non-protease inhibitor-resistant) virus): 0.055 µg/mL
- Protein-adjusted 50% inhibitory concentration (IC50) ([2]; wild-type virus): 0.055 µg/mL

- concentration at 24 h (clinical): < 80 ng/mL
- Elvitegravir Ctrough,ss relative to protein-adjusted IC95 (45 ng/mL) [3]: more than 2 fold
- Elvitegravir Ctrough,ss, individual patients [3]: 82 ng/mL
SMILES: COc1cc2c(cc1Cc1cccc(Cl)c1F)c(=O)c(C(=O)O)cn2[C@H](CO)C(C)C [elvitegravir]
- Elvitegravir Ctrough,ss, mean ([1]; E/C/F/TAF + DRV, N 15): 464 ng/mL
- Elvitegravir Ctrough,ss, mean ([1]; E/C/F/TDF + DRV, N 24): 234 ng/mL
- Elvitegravir Ctrough,ss, mean ([1]; E/C/F/TDF without darunavir, N 32): 250 ng/mL
- Elvitegravir Ctrough,ss, mean ([1]; E/C/F/TDF without darunavir, N 419, population pharmacokinetic estimate): 451 ng/mL
- Elvitegravir Cmax, mean [1, 5]: 1731 ng/mL
- Elvitegravir tmax [1, 5]: 4.0 h
- Protein-adjusted 95% inhibitory concentration (IC95) ([2]; wild type virus): 0.045 µg/mL
